In patent US8063018B2, “Bivalent thrombin binding molecules comprising linkers” (National Research Council of Canada, priority 2004, dated 2011):
Read-outs that look alike come from different tables or passages of the source.

Columns and labels:
[1] = target: T1, thrombin (Homo sapiens, UniProt P00734); assay: Fibrinogen clotting assay catalyzed by thrombin; assay type: biochemical; conditions: for IC50: concentration needed to double the clotting time; for Clotting onset time: 150 nM peptide, 0.6 nM thrombin
[2] = target: T1, thrombin; assay: Kinetic amidolytic assay with chromogenic substrate S-2238 (inhibition constants); assay type: biochemical
Procedure: Peptides were freeze-dried and their identity was confirmed by ion-spray mass spectrometry. Clotting assays were carried out by use of the protocols described previously (DiMaio and others, 1990, 21698-21703; Witting and others, 1992, 737-743). The assay employs bovine plasma fibrinogen dissolved at 0.1% in 50 mM Tris-Cl, 100 mM NaCl, 0.1% PEG-8000 at pH 7.6 (i.e. the clotting buffer). Each assay mixture contained a certain concentration of the peptide, and the reaction was started by the addition of human thrombin to a final concentration of 0.6-1.2 nM. Optical absorbance increase at 420 nm caused by fibrin clot formation was measured at 25° C. or 37° C. using the Spectramax plate reader. The onset clotting time was determined as an intersection of the baseline and the extrapolated linear portion of the OD change curve. The concentration of a peptide needed to double the clotting time was defined as IC50 (DiMaio and others, 1990, 21698-21703). Kinetic amidolytic curves were obtained in clotting buffer at 25° C. using eight inhibitor concentrations and three to five concentrations of the chromogenic substrate S-2238 (Chromogenix) (DiMaio and others, 1990, 21698-21703). Inhibition constants were extracted from Lineweaver-Burk equation by using weighted linear regression. Errors in Ki determination were estimated by using Monte-Carlo sampling with 1-3% variance of the experimental points. Peptide concentrations were determined spectrophotometrically using predicted extinction coefficients at 278 nm (Gill and von Hippel, 1989, 319-326).

[3] = target: α-thrombin (Homo sapiens, UniProt P00734); assay: Effect of calcium on inhibition of the amidolytic activity of thrombin (S-3266); assay type: biochemical; parameters: chromogenic substrate proteolysis by human α-thrombin; conditions: 50 and 100 mM calcium, 0.6 nM thrombin, 25° C.
[4] = Calcium binding followed by proton NMR; conditions: CaCl2 titration, pH 5.5
Procedure: Looking at the results in FIG. 6, panels a, b, c, d show changes in the proton NMR spectra of Ac-[…]NH2 (SEQ. ID. NO. 109) (P3230, panels a, b) and Ac-[…]NH2 (SEQ. ID. NO. 110) (P3231, panels c, d) upon the addition to the initial ˜450 μL of the corresponding peptide in 20 mM sodium acetate-d3 buffer, pH 5.5, containing 10% D2O, of 1 μL (final CaCl2 concentration ˜0.22 mM), additional 2 μL (final CaCl2 concentration ˜0.66 mM), additional 10 μL (final CaCl2 concentration ˜2.8 mM) of 100 mM CaCl2, and additional 10 μL (final CaCl2 concentration ˜23.9 mM) of 1 M CaCl2. Panels e and f show changes in the proton NMR spectrum of a disulfide-linked peptide Bbs-Arg-(D-Pip)-Gly-Cys . . . […](SEQ. ID. No. 16) upon the addition to the initial volume of ˜450 μL of 1 μL (final CaCl2 concentration ˜0.22 mM), additional 2 μL (final CaCl2 concentration ˜0.66 mM) of 100 mM CaCl2, and additional 10 μL (final CaCl2 concentration ˜22.2 mM) of 1 M CaCl2.
An inhibitor with a linker known to bind specific metal ions will be affected by the presence of these ions in solution. Two peptides homologous to the calcium-binding loop of troponin C were designed and established that they bind calcium ions in solution. The peptides have the following sequences—Ac-[…]NH2 (P3230) (SEQ. ID. NO. 109) and Ac-[…]NH2 (P3231) (SEQ. ID. NO. 110). The peptides were synthesized, purified and their identity was confirmed as described in Example 1. They were tested for calcium binding by use of NMR. For this both freeze-dried peptides were reconstituted at a concentration of approximately 0.5 mM in 20 mM sodium acetate-d3 buffer, pH 5.5, containing 10% D2O. Proton spectra of the peptides were recorded at 800 MHz, 15° C., before and after addition of increasing amounts of 0.1 and 1 M stock solutions of CaCl2 in the same buffer. FIGS. 6a,b,c,d show changes in the proton NMR spectra of these two peptides upon the addition to the initial volume of ˜450 μL of 1 μL (final CaCl2 concentration ˜0.22 mM), additional 2 μL (final CaCl2 concentration ˜0.66 mM), additional 10 μL (final CaCl2 concentration ˜2.8 mM) of 100 mM CaCl2, and additional 10 μL (final CaCl2 concentration ˜23.9 mM) of 1 M CaCl2. The changes in the spectra confirm binding of calcium with affinity in mM range.
One of the two designed peptides was used to construct a calcium-responsive bivalent thrombin inhibitor. The disulfide-linked bivalent thrombin inhibitor (corresponding to SEQ. ID. NO. 91) prepared by cross-oxidation of cysteine thiol groups from two peptides Bbs-Arg-(D-Pip)-Gly-Cys (SEQ. ID. NO. 4) and […](SEQ. ID. NO. 114) (preparation described in Example 1) was tested for its ability to bind calcium and inhibit amidolytic reaction in the presence and absence of calcium. […]

[5] = 25° C., S-2238, clotting buffer, read-out: KI, nM (25° C.)

For `CC[C@H](C)[C@H](NC(=O)[C@H](CCC(=O)O)NC(=O)[C@H](CCC(=O)O)NC(=O)[C@H](Cc1ccccc1)NC(=O)[C@H](CC(=O)O)NC(=O)CNC(=O)[C@H](CO)NC(=O)CNC(=O)[C@H](CO)NC(=O)CNC(=O)[C@H](CO)NC(=O)CNC(=O)[C@H](CO)NC(=O)CNC(=O)[C@H]1CCCCN1C(=O)[C@H](CCCNC(=N)N)NS(=O)(=O)c1ccc(C(C)(C)C)cc1)C(=O)N1CCC[C@H]1C(=O)N[C@@H](CCC(=O)O)C(=O)N[C@@H](CCC(=O)O)C(=O)N[C@@H](Cc1ccc(O)cc1)C(=O)N[C@@H](CC(C)C)C(=O)N[C@@H](CCC(N)=O)C(=O)O` [P3150], the IC50 ([1]; IC50, nM (37° C.), 37° C.) was 0.5 ± 0.1 nM, the Ki [2, 5] was 0.5 ± 0.2 nM and the “Effect of calcium on inhibition potency” value [3] was “no visible effect”.
`CC[C@H](C)[C@H](NC(=O)[C@H](CCC(=O)O)NC(=O)[C@H](CCC(=O)O)NC(=O)[C@H](Cc1ccccc1)NC(=O)[C@H](CC(=O)O)NC(=O)CNC(=O)[C@H](CO)NC(=O)CNC(=O)[C@H](CO)NC(=O)CNC(=O)[C@H](CO)NC(=O)CNC(=O)[C@H](CO)NC(=O)CNC(=O)[C@H](CO)NC(=O)CNC(=O)[C@H](CO)NC(=O)CNC(=O)[C@H](CO)NC(=O)CNC(=O)[C@H](CO)NC(=O)CNC(=O)[C@H](CO)NC(=O)CNC(=O)[C@H](CO)NC(=O)CNC(=O)[C@H](CO)NC(=O)CNC(=O)[C@H](CO)NC(=O)CNC(=O)[C@H](CO)NC(=O)CNC(=O)[C@H](CO)NC(=O)CNC(=O)[C@H]1CCCCN1C(=O)[C@H](CCCNC(=N)N)NS(=O)(=O)c1ccc(C(C)(C)C)cc1)C(=O)N1CCC[C@H]1C(=O)N[C@@H](CCC(=O)O)C(=O)N[C@@H](CCC(=O)O)C(=O)N[C@@H](Cc1ccc(O)cc1)C(=O)N[C@@H](CC(C)C)C(=O)N[C@@H](CCC(N)=O)C(=O)O` [P3159] showed an IC50 ([1]; IC50, nM (37° C.), 37° C.) of 3.5 ± 0.2 nM and a Ki [2, 5] of 6.7 ± 1.9 nM.
Compound `CC[C@H](C)[C@H](NC(=O)[C@H](CCC(=O)O)NC(=O)[C@H](CCC(=O)O)NC(=O)[C@H](Cc1ccccc1)NC(=O)[C@H](CC(=O)O)NC(=O)CNC(=O)[C@H](CO)NC(=O)CNC(=O)[C@H](CO)NC(=O)CNC(=O)[C@H](CO)NC(=O)CNC(=O)[C@H](CO)NC(=O)CNC(=O)[C@H](CO)NC(=O)CNC(=O)[C@H](CO)NC(=O)CNC(=O)[C@H](CO)NC(=O)CNC(=O)[C@H](CO)NC(=O)CNC(=O)[C@H](CO)NC(=O)CNC(=O)[C@H](CO)NC(=O)CNC(=O)[C@H](CO)NC(=O)CNC(=O)[C@H](CO)NC(=O)CNC(=O)[C@H]1CCCCN1C(=O)[C@H](CCCNC(=N)N)NS(=O)(=O)c1ccc(C(C)(C)C)cc1)C(=O)N1CCC[C@H]1C(=O)N[C@@H](CCC(=O)O)C(=O)N[C@@H](CCC(=O)O)C(=O)N[C@@H](Cc1ccc(O)cc1)C(=O)N[C@@H](CC(C)C)C(=O)N[C@@H](CCC(N)=O)C(=O)O` [P3160] has an IC50 ([1]; IC50, nM (37° C.), 37° C.) of 2.8 ± 0.1 nM and a Ki [2, 5] of 4.6 ± 0.8 nM.
With `CC[C@H](C)[C@H](NC(=O)[C@H](CCC(=O)O)NC(=O)[C@H](CCC(=O)O)NC(=O)[C@H](Cc1ccccc1)NC(=O)[C@H](CC(=O)O)NC(=O)CNC(=O)[C@H](CO)NC(=O)[C@@H](NC(=O)[C@H](CCCCN)NC(=O)[C@H](CCC(=O)O)NC(=O)[C@H](Cc1ccc(O)cc1)NC(=O)[C@H](Cc1c[nH]cn1)NC(=O)[C@@H]1CCCN1C(=O)[C@H](CO)NC(=O)CNC(=O)[C@H]1CCCCN1C(=O)[C@H](CCCNC(=N)N)NS(=O)(=O)c1ccc(C(C)(C)C)cc1)C(C)C)C(=O)N1CCC[C@H]1C(=O)N[C@@H](CCC(=O)O)C(=O)N[C@@H](CCC(=O)O)C(=O)N[C@@H](Cc1ccc(O)cc1)C(=O)N[C@@H](CC(C)C)C(=O)N[C@@H](CCC(N)=O)C(=O)O` [P3169] the IC50 ([1]; IC50, nM (25° C.), 25° C.) was 0.4 nM and the Ki [2, 5] was 1 ± 0.2 nM.
With `CC[C@H](C)[C@H](NC(=O)[C@H](CCC(=O)O)NC(=O)[C@H](CCC(=O)O)NC(=O)[C@H](Cc1ccccc1)NC(=O)[C@H](CC(=O)O)NC(=O)CNC(=O)[C@H](CO)NC(=O)[C@@H](NC(=O)[C@H](CCCCN)NC(=O)[C@H](CCC(=O)O)NC(=O)[C@H](Cc1ccc(OP(=O)(O)O)cc1)NC(=O)[C@H](Cc1c[nH]cn1)NC(=O)[C@@H]1CCCN1C(=O)[C@H](CO)NC(=O)CNC(=O)[C@H]1CCCCN1C(=O)[C@H](CCCNC(=N)N)NS(=O)(=O)c1ccc(C(C)(C)C)cc1)C(C)C)C(=O)N1CCC[C@H]1C(=O)N[C@@H](CCC(=O)O)C(=O)N[C@@H](CCC(=O)O)C(=O)N[C@@H](Cc1ccc(O)cc1)C(=O)N[C@@H](CC(C)C)C(=O)N[C@@H](CCC(N)=O)C(=O)O` [P3170] the IC50 ([1]; IC50, nM (25° C.), 25° C.) was 0.7 nM and the Ki [2, 5] was 1.5 ± 0.4 nM.
With `CC[C@H](C)[C@H](NC(=O)[C@H](CC(C)C)NC(=O)[C@H](CCCCN)NC(=O)[C@H](CCC(N)=O)NC(=O)[C@H](CCC(=O)O)NC(=O)CNC(=O)[C@H]1CCCCN1C(=O)[C@H](CCCNC(=N)N)NS(=O)(=O)c1ccc(C(C)(C)C)cc1)C(=O)N[C@@H](CO)C(=O)N[C@@H](CCC(=O)O)C(=O)N[C@@H](CCC(=O)O)C(=O)N[C@@H](CC(=O)O)C(=O)N[C@@H](CC(C)C)C(=O)NCC(=O)N[C@@H](CC(=O)O)C(=O)N[C@@H](Cc1ccccc1)C(=O)N[C@@H](CCC(=O)O)C(=O)N[C@@H](CCC(=O)O)C(=O)N[C@H](C(=O)N1CCC[C@H]1C(=O)N[C@@H](CCC(=O)O)C(=O)N[C@@H](CCC(=O)O)C(=O)N[C@@H](Cc1ccc(O)cc1)C(=O)N[C@@H](CC(C)C)C(=O)N[C@@H](CCC(N)=O)C(=O)O)[C@@H](C)CC` [P3182] the “Effect of antibody 9E10 on inhibitory potency” value ([1]; 150 nM inhibitor, ~1.2 μM 9E10) was “reversed the inhibitory potency”, the Clotting onset time ([1]; 1.2 μM anti-c-myc antibody 9E10) was “approximately 230 s” and the Clotting onset time ([1]; no antibody) was “approximately 530 s”. It also gave an IC50 ([1]; IC50, nM (37° C.), 37° C.) of roughly 25 nM and a Ki [2] of 66 ± 13 nM.
With DKNADGWIDNGDFE [P3231] the “Affinity of calcium binding” value [4] was “mM range”.
For DKNADGWIDNGDFE [SEQ. ID. NO. 17], the “Affinity of calcium binding” value [4] was “millimolar range”.
In the case of DKNADGWIDNGEFE [P3230], the “Affinity of calcium binding” value [4] is reported as “mM range”.
